Test results as given in ChEMBL document CHEMBL1201862, “PubChem BioAssay data set” (2004).
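All cell lines were grown in 96-well plates and treated with compound for 48 hours. At the GI50, growth is halved.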 Calls of active or inactive are those of the source. Rule as the data show it: active = GI50 up to about 1.1 µM and inactive = higher.

Columns and labels:
Experiment in all cases: NCI tumour cell line growth inhibition, 48 h
A549 = test system: A549
COLO 205 = test system: COLO 205
DMS-114 = test system: DMS-114
DMS-273 = test system: DMS-273
HCC 2998 = test system: HCC 2998
KM-20L2 = test system: KM-20L2
LXFL 529 = test system: LXFL 529
MOLT-4 = test system: MOLT-4
NCI-H460 = test system: NCI-H460
RPMI-8226 = test system: RPMI-8226
SF-268 = test system: SF-268
SNB-78 = test system: SNB-78
XF498 = test system: XF498
SK-MEL-5 = test system: SK-MEL-5
SR = test system: SR
MCF7 = test system: MCF7
NCI/ADR-RES = test system: NCI/ADR-RES

Measured: GI50

CCCCc1c2cnccc2c(CCCC)c2c1[nH]c1ccccc12
inactive: A549 12.1 µM | COLO 205 10.3 µM | DMS-114 3.99 µM | DMS-273 10.7 µM | HCC 2998 23.9 µM | KM-20L2 13.6 µM | LXFL 529 11.4 µM | MOLT-4 2.84 µM | NCI-H460 15.7 µM | RPMI-8226 2.9 µM | SF-268 14.9 µM | SNB-78 25.2 µM | XF498 5.19 µM

COc1cc(C2C(C(=O)NCc3ccccc3)=C(C)NC(C)=C2C(=O)NCc2ccccc2)ccc1O
inactive: A549 77.4 µM | DMS-114 39.4 µM | DMS-273 29.4 µM | HCC 2998 23.6 µM | KM-20L2 33.2 µM | LXFL 529 28.6 µM | MOLT-4 20.4 µM | NCI-H460 24.3 µM | RPMI-8226 23 µM | SF-268 34.9 µM | SK-MEL-5 59.4 µM | SNB-78 32.8 µM | SR 20.2 µM | XF498 61.5 µM

O=C1NC2OCC(O)C(O1)C2O (centres undefined)
inactive: COLO 205 > 100 µM | DMS-114 > 100 µM | DMS-273 > 100 µM | KM-20L2 > 100 µM | LXFL 529 > 100 µM | MOLT-4 > 100 µM | NCI-H460 > 100 µM | RPMI-8226 > 100 µM | SF-268 > 100 µM | SK-MEL-5 > 100 µM | SNB-78 > 100 µM | SR > 100 µM | XF498 > 100 µM

CC(C)C(=O)/C=C/c1ccc(Br)cc1
inactive: A549 23.8 µM | COLO 205 23.4 µM | DMS-114 15.2 µM | DMS-273 12.9 µM | HCC 2998 17.1 µM | KM-20L2 9.86 µM | LXFL 529 16.1 µM | MOLT-4 19.2 µM | NCI-H460 14.9 µM | RPMI-8226 5.38 µM | SF-268 23 µM | SK-MEL-5 12.7 µM | SNB-78 27 µM | SR 7.28 µM | XF498 16.8 µM

Cc1ccccc1N1C(=O)C2C=CC(n3[nH]c(=O)n(Cc4ccccc4)c3=O)CC2C1=O (centres undefined)
inactive: A549 > 100 µM | COLO 205 > 100 µM | DMS-114 > 100 µM | DMS-273 > 100 µM | HCC 2998 > 100 µM | KM-20L2 > 100 µM | LXFL 529 > 100 µM | MOLT-4 > 100 µM | NCI-H460 > 100 µM | RPMI-8226 > 100 µM | SF-268 > 100 µM | SK-MEL-5 > 100 µM | SNB-78 > 100 µM | XF498 > 100 µM

COc1ccc(OCC(C)(C)O)cc1
inactive: A549 > 100 µM | COLO 205 > 100 µM | DMS-114 > 100 µM | DMS-273 > 100 µM | HCC 2998 > 100 µM | KM-20L2 > 100 µM | MCF7 > 45.3 µM | MOLT-4 > 100 µM | NCI-H460 > 100 µM | NCI/ADR-RES > 100 µM | RPMI-8226 > 100 µM | SF-268 > 100 µM | SK-MEL-5 > 100 µM | SNB-78 > 100 µM | XF498 > 100 µM

N#CC1(c2nc3ccccc3o2)C(=O)C(=O)N(C2C3CC4CC(C3)CC2C4)C(=O)C1=O (centres undefined)
inactive: A549 > 100 µM | COLO 205 > 100 µM | DMS-114 > 100 µM | DMS-273 > 100 µM | HCC 2998 > 100 µM | KM-20L2 > 100 µM | LXFL 529 > 100 µM | MOLT-4 > 100 µM | NCI-H460 > 100 µM | RPMI-8226 26.4 µM | SF-268 > 100 µM | SK-MEL-5 > 100 µM | SNB-78 > 100 µM | SR > 100 µM | XF498 > 100 µM

S=P1(N2CCCCC2)Oc2ccc3ccccc3c2-c2c(ccc3ccccc23)O1
inactive: A549 > 89.5 µM | COLO 205 > 100 µM | DMS-114 > 83 µM | DMS-273 > 80.2 µM | HCC 2998 > 100 µM | KM-20L2 > 78.9 µM | MCF7 > 85.3 µM | MOLT-4 > 100 µM | NCI-H460 33.6 µM | NCI/ADR-RES > 51.2 µM | RPMI-8226 > 91.2 µM | SF-268 > 82.2 µM | SK-MEL-5 > 71.4 µM | SNB-78 71.4 µM | XF498 56.9 µM

C=C1C(=O)O[C@@H]2C[C@@]3(C)[C@H](O)CCC(=C)[C@@H]3C[C@H]12 [ASPERILIN]
inactive: A549 21.5 µM | COLO 205 2.72 µM | DMS-114 14.4 µM | DMS-273 8.38 µM | HCC 2998 7.05 µM | KM-20L2 7.53 µM | LXFL 529 2.75 µM | NCI-H460 6.14 µM | RPMI-8226 3.46 µM | SF-268 15.6 µM | SK-MEL-5 4.26 µM | SNB-78 6.04 µM | SR 3.14 µM | XF498 2.59 µM

c1ccc2c(c1)nnn2CNc1ccc(N2CCOCC2)cc1
inactive: A549 > 100 µM | COLO 205 > 100 µM | DMS-114 > 100 µM | DMS-273 > 100 µM | HCC 2998 > 100 µM | KM-20L2 > 100 µM | LXFL 529 > 100 µM | MOLT-4 > 100 µM | NCI-H460 > 100 µM | RPMI-8226 47.4 µM | SF-268 > 100 µM | SNB-78 > 100 µM | SR 43.3 µM | XF498 > 100 µM

CSC(=N)N1N=C2/C(=C/c3ccccc3)CCC[C@H]2[C@H]1c1ccccc1
inactive: A549 4.49 µM | COLO 205 1.55 µM | DMS-114 2.9 µM | DMS-273 2.75 µM | HCC 2998 3.27 µM | KM-20L2 2.34 µM | LXFL 529 4.55 µM | MOLT-4 2.69 µM | NCI-H460 5.68 µM | RPMI-8226 2.18 µM | SF-268 15.2 µM | SNB-78 16 µM | SR 1.85 µM | XF498 10.8 µM

C[C@]12CC[C@H](OC3CCCCO3)CC1=CC[C@@H]1C2CC[C@]2(C)/C(=N/OCCC#N)CCC12 (some centres undefined)
inactive: A549 26.8 µM | DMS-114 4.76 µM | DMS-273 76.7 µM | HCC 2998 > 100 µM | KM-20L2 3.78 µM | LXFL 529 17.7 µM | NCI-H460 15.2 µM | RPMI-8226 > 100 µM | SK-MEL-5 7.74 µM | SNB-78 21.9 µM | XF498 4.62 µM

C=C1COC(/C=C(\C)CC/C=C(\C)CCl)C1 (centres undefined)
inactive: A549 > 100 µM | COLO 205 > 100 µM | DMS-114 > 100 µM | DMS-273 > 100 µM | HCC 2998 > 100 µM | KM-20L2 > 100 µM | LXFL 529 > 100 µM | MOLT-4 > 100 µM | NCI-H460 > 100 µM | RPMI-8226 > 100 µM | SF-268 > 100 µM | SK-MEL-5 > 100 µM | SNB-78 > 100 µM | XF498 > 100 µM

COc1ccc(C2C3C(=O)C=CC(=O)C3[C@@H]2C)cc1OC (some centres undefined)
inactive: A549 > 100 µM | COLO 205 78.5 µM | DMS-114 56.5 µM | DMS-273 61.4 µM | HCC 2998 > 100 µM | KM-20L2 > 100 µM | LXFL 529 42.4 µM | MOLT-4 36 µM | NCI-H460 > 100 µM | RPMI-8226 27.6 µM | SF-268 > 100 µM | SK-MEL-5 > 100 µM | SNB-78 > 100 µM | XF498 56.1 µM

CCC1=CCN(c2ccc(C)cc2)OC1c1ccc(OC)cc1 (centres undefined)
inactive: A549 71.8 µM | COLO 205 > 100 µM | DMS-114 > 100 µM | DMS-273 69.8 µM | HCC 2998 70.5 µM | KM-20L2 66.5 µM | LXFL 529 62.4 µM | MOLT-4 > 100 µM | NCI-H460 > 100 µM | RPMI-8226 43.3 µM | SF-268 > 100 µM | SNB-78 > 100 µM | SR 47.4 µM | XF498 46.6 µM

COc1ccc2c(c1)OCCC1=C2SCC2(C)CCN=C12 (centres undefined)
inactive: A549 > 100 µM | COLO 205 > 100 µM | DMS-114 92 µM | DMS-273 > 100 µM | HCC 2998 > 10 µM | KM-20L2 36.1 µM | LXFL 529 > 100 µM | MOLT-4 52 µM | NCI-H460 > 100 µM | RPMI-8226 > 100 µM | SF-268 > 100 µM | SK-MEL-5 46.5 µM | SNB-78 > 100 µM | XF498 > 100 µM

O=C1CCC2COc3ccc(O)c1c32 (centres undefined)
inactive: A549 > 100 µM | COLO 205 > 100 µM | DMS-114 > 100 µM | DMS-273 > 100 µM | KM-20L2 > 100 µM | LXFL 529 > 100 µM | MOLT-4 > 100 µM | NCI-H460 > 100 µM | RPMI-8226 > 100 µM | SK-MEL-5 > 100 µM | SNB-78 > 100 µM | XF498 > 100 µM

C=C1Oc2nc3ccccc3c(=O)n2C1(C)C
inactive: A549 > 100 µM | COLO 205 > 100 µM | DMS-114 > 100 µM | DMS-273 > 100 µM | HCC 2998 > 100 µM | KM-20L2 > 100 µM | LXFL 529 > 100 µM | MOLT-4 > 100 µM | NCI-H460 > 100 µM | RPMI-8226 > 100 µM | SF-268 > 100 µM | SK-MEL-5 > 100 µM | SNB-78 > 100 µM | XF498 > 100 µM

C(=C/c1nc2ccccc2o1)/c1ccc2c(c1)OCO2
inactive: A549 18.7 µM | COLO 205 40.7 µM | DMS-114 16.9 µM | DMS-273 4.56 µM | HCC 2998 6.32 µM | KM-20L2 6.61 µM | MCF7 14.5 µM | MOLT-4 45.7 µM | NCI-H460 21.2 µM | NCI/ADR-RES 14.1 µM | RPMI-8226 26.4 µM | SF-268 19.8 µM | SK-MEL-5 8.41 µM | SNB-78 25.7 µM | XF498 20.5 µM
